Assay results as given in US12502355B2, “Solid pharmaceutical formulations of 6-(2-chloro-6-methylpyridin-4-yl)-5-(4-fluorophenyl)-1,2,4-triazin-3-amine” (AstraZeneca AB, priority 2019, dated 2025).
Values after ≈ are worked out from the molar mass of the structure shown.

Legend:
Type in all cases: physicochemical
physchem [1] = assay: physchem
physchem [2] = assay: physchem; remark: listed apart in the source
log P of Compound 1 = assay: log P of Compound 1
[3] = Solubility screens for formulation strategies (lipidic, mesoporous silica, spray drying)
From the text: The inventors investigated multiple strategies to make an effective solid formulation, including: • Conventional immediate release tablets. […] Screen of co-crystal former molecules was unsuccessful in identifying a suitable co-crystal form. • Lipid formulation: Compound 1 is a neutral molecule, and not lipophilic.

Cc1cc(-c2nnc(N)nc2-c2ccc(F)cc2)cc(Cl)n1 [Compound 1, 6-(2-chloro-6-methylpyridin-4-yl)-5-(4-fluorophenyl)-1,2,4-triazin-3-amine]
solubility (physchem [1]; fassif): 5.8 µg/mL (≈ 18.4 µM) | solubility (physchem [1]; pH 1.2, simulated gastric fluid): 29.8 µg/mL (≈ 94.4 µM) | solubility (physchem [1]; pH 7, aqueous buffer): < 5 µg/mL | pKa (physchem [2]): 1.78 | logP (log P of Compound 1): 2.8 | solubility in solvents suitable for spray drying [3]: limited solubility | solubility in suitable solvent for mesoporous silica formulation [3]: inadequate | solubility in suitable excipients for a lipidic formulation ([3]; lipidic screen): did not show significant solubility
